Assay results taken from US20250320215A1, “SALTS OF N-[4-(4-[[2-(DIMETHYLAMINO)ETHYL]AMINO]-3-METHYL-1H-PYRAZOLO[3,4-D]PYRIMIDIN-6-YL)-2-FLUOROPHENYL]-2,5-DIFLUOROBENZENESULFONAMIDE AND CRYSTALLINE FORMS THEREOF” (THRYV THERAPEUTICS INC, priority 2022, published 2025).
Converted amounts (≈) assume the structure as drawn.

What was measured:
Format in all cases: physicochemical
[1] = Thermal treatment (heat-cool cycle by DSC, XRPD of resulting solids)
Method: Compound 3, Form E was treated with heat-cool cycle by DSC. The resulted solids were characterized by XRPD. Compound 3, Form E, was converted to Compound 3, Form D after desolvation.
Compound 4 Form B was treated with heat-cool cycle by DSC. The resulted solids were checked by XRPD. […] The water was excluded at elevated temperature, then entered in the crystal lattice again at room temperature.
Compound 4 Form C and trace Form B was treated with heat-cool cycle by DSC. The resulted solids were checked by XRPD. The sample was converted to low crystalline (LC) Form B after heating to 175° C.
Compound 4 Form D was treated with heat-cool cycle by DSC. The resulted solids were checked by XRPD. The sample kept unchanged after heating to 140° C., but was converted to a new low crystalline form after heating to 210° C. which was assigned to Form F.

[2] = Dynamic vapor sorption/desorption (DVS) with post-DVS XRPD; settings: for Post-DVS XRPD: XRPD after DVS versus before; for Reversibility (DVS): sorption/desorption
Method: Moisture sorption/desorption data were collected on a DVS Intrinsic. 7-20 mg of a sample was placed into a tared sample chamber and automatically weighed. The anhydrates were analyzed with the following setting parameters:
DVS experiments (FIGS. 17, 19, 21, 34, 35, 48 and 50) and XRPD post-DVS experiments (FIGS. 18, 20, 22, 36, 49 and 51) were conducted in order to study the deliquescence behaviour of the crystalline salts upon expose to humidity.

[3] = Comparative study (interconversion and water activity) between crystalline forms; settings: Compound 3: Forms B, C, D, E, non-aqueous and aqueous systems; Compound 4: Forms B to G
Method: (capped) and 40° C. with 75% relative humidity (open).
Form D is stable at high water activity (0.16≤aW≤0.90). Solid stability study indicated Form D was physically and chemically stable at 60° C. (close) and 40° C. at 75% RH for 7 days.

[4] = Solid stability testing (HPLC purity and XRPD); settings: for Solid stability: 60° C. (capped/close) and 40° C./75% RH (open) for 7 days; for Purity, Initial T0 / Purity - 7 days, 60° C. / Purity - 7 days, 40° C./75% RH: HPLC; for Purity, Initial T0 / XRPD, Initial T0: before storage; for Purity - 7 days, 60° C. / XRPD - 7 days, 60° C.: capped/closed vial; for Purity - 7 days, 40° C./75% RH / XRPD - 7 days, 40° C./75% RH: open
Method: HPLC analysis were performed with an Agilent HPLC 1260 series instrument. HPLC method for stability testing is as follows:
Solid stability testing of Compound 3, Form D was evaluated at the conditions of 60° C. (capped) and 40° C./75% RH (open) for 7 days. Polymorphic form and purity were analyzed by XRPD and HPLC, respectively. […] (capped) and 40° C./75% RH (open) for 7 days.
Solid stability testing of Compound 4 Form B and Form D were evaluated at the conditions of 60° C. (vial close) and 40° C./75% RH (vial open) for 7 days. Polymorphic form and purity were checked by XRPD and HPLC, respectively.

[5] = pKa values and protonation state of Compound 1
[6] = Solubility estimates by aliquot addition method in various solvents; settings: thermodynamic from solid
Method: Solubility estimates were conducted using an aliquot addition method in a variety of solvents at ambient temperature.
Samples with solvents with poor solubility were heated at 50° C.

[7] = Solubility of the salts in water / MTBE
Method: Solubility in water is >25 mg/mL.

[8] = Drying, physical stability of the form
Method: After being subjected to drying in a vacuum oven for 1 day at 62-72° C., Form A was characterized by XRPD (FIG. 22: pre-DVS) and proton NMR (FIG. 15).
Form E was obtained by slow cooling crystallization in NMP (FIG. 43). The unstable form has not been characterized further. A clear solution of Compound 4, Form B was dissolved (30 mg) in NMP at 50° C. and cooled from 50° C. to 2° C.

[9] = Water activity study (competition of forms, XRPD); settings: room temperature
Method: Water activity study was performed using Compound 3 Form B (anhydrate) as the input material in EtOH/Water with different water content at RT. About 5 mg of Compound 3, Form B was used to prepare saturated solutions and the solutions were filtered by syringe at RT. 5 mg of Compound 3, Form D were added in the 1 mL of filtrate, and the suspension was slurried at RT for 3 and 7 days. The solids collected after filtration were analyzed by XRPD.
Protocol: excess amount of Compound 4 Form B was used to prepare saturated solutions. 6-8 mg each of Compound 4 Form B and Form D were added in the solutions. The suspension was slurried at room temperature for the corresponding times. Residual solids were collected by filtration with syringe filter, and characterized by XRPD.

[10] = Slurry study evaluated by XRPD; settings: slurry started from Form B; Form C occurred at 30 min; at 60 min

In the case of `Cc1n[nH]c2nc(-c3ccc(NS(=O)(=O)c4cc(F)ccc4F)c(F)c3)nc(NCCN(C)C)c12` [Compound 4 Form D], the “XRPD Resulting Form” value ([1]; Heated to 140° C. at 10° C./min, and cooled to 25° C. at 5° C./min) is reported as “Form D”, the “XRPD Resulting Form” value ([1]; Heated to 210° C. at 10° C./min, and cooled to 25° C. at 5° C./min) is reported as “Form F” and the hygroscopicity [2] is reported as “slightly hygroscopic”. The “Post-DVS XRPD” value [2] was “No change”, the “wt % gain (DVS)” value ([2]; at 80% RH (25° C.)) was 0.99 wt % and the “water uptake (DVS)” value ([2]; at 80% RH, 25° C.) was 0.99%. The “relative stability among the crystalline forms” value [3] was “most stable form”, the Solid stability [4] was “chemically and physically stable” and the “Purity, Initial T0” value [4] was 99.29%. The “Purity - 7 days, 60° C.” value [4] was 99.17%, the “Purity - 7 days, 40° C./75% RH” value [4] was 99.29% and the “XRPD, Initial T0” value [4] was “Form D”. For the same compound, the “XRPD - 7 days, 60° C.” value [4] was “Form D” and the “XRPD - 7 days, 40° C./75% RH” value [4] was “Form D”.
With `Cc1n[nH]c2nc(-c3ccc(NS(=O)(=O)c4cc(F)ccc4F)c(F)c3)nc(NCCN(C)C)c12` [Compound 1, N-[4-(4-[[2-(dimethylamino)ethyl]amino]-3-methyl-1H-pyrazolo[3,4-d]pyrimidin-6-yl)-2-fluorophenyl]-2,5-difluorobenzenesulfonamide] the pKa ([5]; first of four pKa values) was 2.7, the pKa ([5]; fourth of four pKa values) was 11.8 and the “Charge (dominant protonation state)” value ([5]; pH 5.81-8.85) was “Neutral (Zwitterion)”. The pKa ([5]; second of four pKa values) was 5.81, the pKa ([5]; third of four pKa values) was 8.85 and the solubility ([6]; ACN, 50 °C, organic solvent or mixture, read-out: Solubility at 50° C.) was less than 1000 µg/mL. It also gave a solubility ([6]; ACN, organic solvent or mixture, read-out: Solubility at RT) of less than 1000 µg/mL, a solubility ([6]; DCM, 50 °C, organic solvent or mixture, read-out: Solubility at 50° C.) of less than 1000 µg/mL and a solubility ([6]; DCM, organic solvent or mixture, read-out: Solubility at RT) of less than 1000 µg/mL. It also gave a solubility ([6]; DMF, organic solvent or mixture, read-out: Solubility at RT) of 33000 µg/mL (≈ 65.3 mM), a solubility ([6]; DMSO, organic solvent or mixture, read-out: Solubility at RT) of 41000 µg/mL (≈ 81.1 mM) and a solubility ([6]; EtOAc, 50 °C, organic solvent or mixture, read-out: Solubility at 50° C.) of less than 3000 µg/mL. The solubility ([6]; EtOAc, organic solvent or mixture, read-out: Solubility at RT) was less than 3000 µg/mL, the solubility ([6]; EtOH, 50 °C, organic solvent or mixture, read-out: Solubility at 50° C.) was less than 2000 µg/mL and the solubility ([6]; EtOH, organic solvent or mixture, read-out: Solubility at RT) was less than 2000 µg/mL. The solubility ([6]; IPA, 50 °C, organic solvent or mixture, read-out: Solubility at 50° C.) was less than 2000 µg/mL, the solubility ([6]; IPA, organic solvent or mixture, read-out: Solubility at RT) was less than 2000 µg/mL and the solubility ([6]; MTBE, 50 °C, organic solvent or mixture, read-out: Solubility at 50° C.) was less than 2000 µg/mL. The solubility ([6]; MTBE, organic solvent or mixture, read-out: Solubility at RT) was less than 2000 µg/mL, the solubility ([6]; MeOH, 50 °C, organic solvent or mixture, read-out: Solubility at 50° C.) was greater than 1000 µg/mL and the solubility ([6]; MeOH, organic solvent or mixture, read-out: Solubility at RT) was less than 1000 µg/mL. It also gave a solubility ([6]; THF, 50 °C, organic solvent or mixture, read-out: Solubility at 50° C.) greater than 1000 µg/mL, a solubility ([6]; THF, organic solvent or mixture, read-out: Solubility at RT) of less than 1000 µg/mL and a solubility ([6]; acetone, 50 °C, organic solvent or mixture, read-out: Solubility at 50° C.) of less than 1000 µg/mL. The solubility ([6]; acetone, organic solvent or mixture, read-out: Solubility at RT) was less than 1000 µg/mL, the solubility ([6]; water, 50 °C, water, read-out: Solubility at 50° C.) was less than 2000 µg/mL and the solubility ([6]; water, read-out: Solubility at RT) was less than 2000 µg/mL.
For `Cc1n[nH]c2nc(-c3ccc(NS(=O)(=O)c4cc(F)ccc4F)c(F)c3)nc(NCCN(C)C)c12` [Compound 2], the “Post-DVS XRPD” value [2] was “No change”, the “wt % gain (DVS)” value ([2]; from 5 to 95% RH) was 0.4 wt % and the Solubility in water ([7]; water) was less than 1000 µg/mL.
With `Cc1n[nH]c2nc(-c3ccc(NS(=O)(=O)c4cc(F)ccc4F)c(F)c3)nc(NCCN(C)C)c12` [Compound 4 Form E] the “form conversion after drying” value ([8]; obtained by cooling in NMP from 50° C. to 2° C.) was “converted to Form D”.
For `Cc1n[nH]c2nc(-c3ccc(NS(=O)(=O)c4cc(F)ccc4F)c(F)c3)nc(NCCN(C)C)c12.Cl` [Compound 3 Form D], the hygroscopicity [2] was “slightly hygroscopic”, the “wt % gain (DVS)” value ([2]; first value of '1.5 wt % and 1.7 wt % gain from 80 to 90% RH') was 1.5 wt % and the “Reversibility (DVS)” value [2] was “Minor hysteresis”. For the same compound, the “relative stability among the crystalline forms” value [3] was “most stable form”, the “water activity (aw) at which the form is stable / the most stable form” value [9] was “lower than 0.6” and the Solid stability [4] was “chemically and physically stable”. The “Purity, Initial T0” value [4] was 99.19%, the “Purity - 7 days, 60° C.” value [4] was 99.24% and the “Purity - 7 days, 40° C./75% RH” value [4] was 99.30%. For the same compound, the “XRPD, Initial T0” value [4] was “Form D”, the “XRPD - 7 days, 60° C.” value [4] was “Form D” and the “XRPD - 7 days, 40° C./75% RH” value [4] was “Form D”.
With `Cc1n[nH]c2nc(-c3ccc(NS(=O)(=O)c4cc(F)ccc4F)c(F)c3)nc(NCCN(C)C)c12.Cl` [Compound 3 Form A] the “Post-DVS XRPD” value [2] was “No change”, the “wt % gain (DVS)” value ([2]; from 5 to 96% RH) was 2.1 wt % and the solubility at 1 day ([7]; water, thermodynamic from solid) was less than 1000 µg/mL.
For `Cc1n[nH]c2nc(-c3ccc(NS(=O)(=O)c4cc(F)ccc4F)c(F)c3)nc(NCCN(C)C)c12` [Compound 4 Form A], the “physical stability on drying” value ([8]; vacuum oven for a day at 62-72° C.) was “retain its crystalline form”, the “Comments: hygroscopicity (DVS)” value [2] was “Hygroscopic” and the hygroscopicity [2] was “hygroscopic”. The “Post-DVS XRPD” value [2] was “No change”, the “wt % gain (DVS)” value ([2]; from 5 to 75% RH) was 1.3 wt % and the “wt % gain (DVS)” value ([2]; from 75 to 96% RH) was 3.2 wt %. The “Reversibility (DVS)” value [2] was “Reversible”, the solubility ([7]; MTBE, organic solvent or mixture, thermodynamic from solid, MTBE at RT) was less than 2000 µg/mL and the Solubility in water ([7]; water) was greater than 25000 µg/mL.
In the case of `Cc1n[nH]c2nc(-c3ccc(NS(=O)(=O)c4cc(F)ccc4F)c(F)c3)nc(NCCN(C)C)c12` [Compound 4 Form C], the “form conversion during slurry in THF” value [10] is reported as “converted to di-mesylate Form D completely”.
